Source: patent US20160346356A1, “USE OF RNA INTERFERENCE, FARNESOIC ACID AND RECOMBINANT PROTEIN APPROACH TO INDUCE GONAD MATURATION IN CRUSTACEAN SPECIES” (priority 2013, published 2016)
Read-outs that look alike come from different tables or passages of the source.

How the values were obtained:
HaVg1 gene expression = settings: hepatopancreas explant, cited from earlier work
gonad maturation = assay: Example 2: FA injection into female shrimp, gonadosomatic index; assay type: in vivo; settings: FA 1 μg/g of body weight, day 6
Experimental: Farnesoic acid (FA) is known to be able to stimulate vitellogenin synthesis in crab, shrimp and lobster. Stock of FA is prepared in ultra-pure mineral oil and female shrimp will be injected with FA.
Fifty female shrimp are injected with FA through the arthropodial membrane (e.g. at 1 μg/g of body weight) 1 day after they molt. After injection, the shrimp is returned to the culture tank for culture. A group of 10 shrimps are randomly selected at a 24-hour interval. 50 μl of hemolymph sample will be taken from the shrimps for analyzing the vitellogenin level by ELISA. On day 6, all the shrimps will be sacrificed and their ovary will be weighted for estimating the gonadosomatic index (GSI), which is the ratio of ovary weight to total body weight. A control group is also setup in which the shrimps are injected with the same volume of mineral oil without any FA. Shrimps injected with FA should have a higher ovary weight to total shrimp weight than the control.

[1] = system: expression of vitellogenin; settings: red crab; cited from earlier work

| SMILES | increase in HaVg1 gene expression (HaVg1 gene expression; 0.7 μM 20E) [fold] | ovary weight to total shrimp weight (GSI) versus control (gonad maturation) | expression of vitellogenin [1] | increase in HaVg1 gene expression (HaVg1 gene expression; 4.2 μM FA) [fold] |
| --- | --- | --- | --- | --- |
| CC(C)(O)CC[C@@H](O)[C@](C)(O)[C@H]1CC[C@@]2(O)C3=CC(=O)[C@@H]4C[C@@H](O)[C@@H](O)C[C@]4(C)[C@H]3CC[C@]12C [20E, 20-hydroxyecdysone] | 2.2 |  |  |  |
| CC(C)=CCCC(C)=CCCC(C)=CC(=O)O [FA, farnesoic acid] |  | higher | stimulate | 2 |
